{
  "source": "patent US7244431B2",
  "about": "“Allergy vaccines and their preparation” (priority 2000, dated 2007)",
  "key": {"[1]": {"tested_on": "IgE antibodies in sera from birch pollen allergic patients", "experiment": "ELISA detection of peptide- and rBet v 1-specific IgE antibodies", "format": "binding, human", "procedure": "Birch pollen allergic patients suffering from allergic rhinoconjunctivitis and/or asthma to birch pollen and related allergens were selected according to case history indicative for seasonal birch pollinosis and characterized by skin prick testing with birch pollen extract and serological CAP RAST (Pharmacia Diagnostics, Uppsala, Sweden) testing. Total IgE levels in the sera were determined by CAP RIST measurements (Pharmacia). […] Sera from 60 birch pollen allergic patients and a non-atopic individual were used for IgE competition studies. The birch pollen allergic patients group consisted of 25 males and 35 females with a mean age of 37 years (ranging from 19-60 years) (Table 2).\nSubsequently, plates were incubated with 1:3 diluted sera from 60 birch pollen allergic patients and from a non-atopic individual overnight at 4° C. Bound IgE antibodies were detected with a 1:1000 diluted alkaline-phosphatase-coupled mouse monoclonal anti-human IgE antibody (Pharmingen, San Diego, Calif.)."}, "[2]": {"tested_on": "birch pollen allergic patients", "experiment": "Skin prick testing of allergic patients", "format": "in vivo, human", "conditions": "100 μg/ml", "procedure": "SPTs were performed on the individuals forearms as described ([…]. et al. (1997) J. Clin Invest. 99, 1673-168; Dreborg S: (1989) J. Am. Acad. DerMatol. 21, 820-821). […] In addition standardized skin prick solutions (birch pollen extract and histamine) (Allergopharma, Reinbek, Germany) were tested. Reactions were recorded 20 minutes after SPT by photography and by transferring the ballpoint pen-surrounded wheal area with a scotch tape to paper."}},
  "data": [
    {"sequence": "CVDHTNFKYNYSVIEGGPIGDTLEKISNEIK [Peptide P6, Bet v 1-derived synthetic peptide, position aa 75-104, one cysteine added]", "values": [
      {"measurement": "IgE (OD)", "setting": "[1]; serum of NHS, non-allergic control individual", "value": "— (Dashes indicate reactivities below the cut-off level (OD=0.050))"},
      {"measurement": "IgE (OD)", "setting": "[1]; serum of patient 1", "value": "— (Dashes indicate reactivities below the cut-off level (OD=0.050))"},
      {"measurement": "IgE (OD)", "setting": "[1]; serum of patient 2", "value": "— (Dashes indicate reactivities below the cut-off level (OD=0.050))"},
      {"measurement": "IgE (OD)", "setting": "[1]; serum of patient 3", "value": "— (Dashes indicate reactivities below the cut-off level (OD=0.050))"},
      {"measurement": "IgE (OD)", "setting": "[1]; serum of patient 4", "value": "— (Dashes indicate reactivities below the cut-off level (OD=0.050))"},
      {"measurement": "IgE (OD)", "setting": "[1]; serum of patient 5", "value": "— (Dashes indicate reactivities below the cut-off level (OD=0.050))"},
      {"measurement": "IgE (OD)", "setting": "[1]; serum of patient 6", "value": "— (Dashes indicate reactivities below the cut-off level (OD=0.050))"},
      {"measurement": "IgE (OD)", "setting": "[1]; serum of patient 7", "value": "— (Dashes indicate reactivities below the cut-off level (OD=0.050))"},
      {"measurement": "IgE (OD)", "setting": "[1]; serum of patient 8", "value": "— (Dashes indicate reactivities below the cut-off level (OD=0.050))"},
      {"measurement": "IgE (OD)", "setting": "[1]; serum of patient 9", "value": "— (Dashes indicate reactivities below the cut-off level (OD=0.050))"},
      {"measurement": "IgE (OD)", "setting": "[1]; serum of patient 10", "value": "— (Dashes indicate reactivities below the cut-off level (OD=0.050))"},
      {"measurement": "IgE (OD)", "setting": "[1]; serum of patient 11", "value": "— (Dashes indicate reactivities below the cut-off level (OD=0.050))"},
      {"measurement": "IgE (OD)", "setting": "[1]; serum of patient 12", "value": "— (Dashes indicate reactivities below the cut-off level (OD=0.050))"},
      {"measurement": "IgE (OD)", "setting": "[1]; serum of patient 13", "value": "— (Dashes indicate reactivities below the cut-off level (OD=0.050))"},
      {"measurement": "IgE (OD)", "setting": "[1]; serum of patient 14", "value": "— (Dashes indicate reactivities below the cut-off level (OD=0.050))"},
      {"measurement": "IgE (OD)", "setting": "[1]; serum of patient 15", "value": "— (Dashes indicate reactivities below the cut-off level (OD=0.050))"},
      {"measurement": "IgE (OD)", "setting": "[1]; serum of patient 16", "value": "— (Dashes indicate reactivities below the cut-off level (OD=0.050))"},
      {"measurement": "IgE (OD)", "setting": "[1]; serum of patient 17", "value": "— (Dashes indicate reactivities below the cut-off level (OD=0.050))"},
      {"measurement": "IgE (OD)", "setting": "[1]; serum of patient 18", "value": "— (Dashes indicate reactivities below the cut-off level (OD=0.050))"},
      {"measurement": "IgE (OD)", "setting": "[1]; serum of patient 19", "value": "— (Dashes indicate reactivities below the cut-off level (OD=0.050))"},
      {"measurement": "IgE (OD)", "setting": "[1]; serum of patient 20", "value": "— (Dashes indicate reactivities below the cut-off level (OD=0.050))"},
      {"measurement": "IgE (OD)", "setting": "[1]; serum of patient 21", "value": "— (Dashes indicate reactivities below the cut-off level (OD=0.050))"},
      {"measurement": "IgE (OD)", "setting": "[1]; serum of patient 22", "value": "— (Dashes indicate reactivities below the cut-off level (OD=0.050))"},
      {"measurement": "IgE (OD)", "setting": "[1]; serum of patient 23", "value": "— (Dashes indicate reactivities below the cut-off level (OD=0.050))"},
      {"measurement": "IgE (OD)", "setting": "[1]; serum of patient 24", "value": "— (Dashes indicate reactivities below the cut-off level (OD=0.050))"},
      {"measurement": "IgE (OD)", "setting": "[1]; serum of patient 25", "value": "— (Dashes indicate reactivities below the cut-off level (OD=0.050))"},
      {"measurement": "IgE (OD)", "setting": "[1]; serum of patient 26", "value": "— (Dashes indicate reactivities below the cut-off level (OD=0.050))"},
      {"measurement": "IgE (OD)", "setting": "[1]; serum of patient 27", "value": "— (Dashes indicate reactivities below the cut-off level (OD=0.050))"},
      {"measurement": "IgE (OD)", "setting": "[1]; serum of patient 28", "value": "— (Dashes indicate reactivities below the cut-off level (OD=0.050))"},
      {"measurement": "IgE (OD)", "setting": "[1]; serum of patient 29", "value": "— (Dashes indicate reactivities below the cut-off level (OD=0.050))"},
      {"measurement": "IgE (OD)", "setting": "[1]; serum of patient 30", "value": "— (Dashes indicate reactivities below the cut-off level (OD=0.050))"},
      {"measurement": "IgE (OD)", "setting": "[1]; serum of patient 31", "value": "— (Dashes indicate reactivities below the cut-off level (OD=0.050))"},
      {"measurement": "IgE (OD)", "setting": "[1]; serum of patient 32", "value": "— (Dashes indicate reactivities below the cut-off level (OD=0.050))"},
      {"measurement": "IgE (OD)", "setting": "[1]; serum of patient 33", "value": "— (Dashes indicate reactivities below the cut-off level (OD=0.050))"},
      {"measurement": "IgE (OD)", "setting": "[1]; serum of patient 34", "value": "— (Dashes indicate reactivities below the cut-off level (OD=0.050))"},
      {"measurement": "IgE (OD)", "setting": "[1]; serum of patient 35", "value": "— (Dashes indicate reactivities below the cut-off level (OD=0.050))"},
      {"measurement": "IgE (OD)", "setting": "[1]; serum of patient 36", "value": "— (Dashes indicate reactivities below the cut-off level (OD=0.050))"},
      {"measurement": "IgE (OD)", "setting": "[1]; serum of patient 37", "value": "— (Dashes indicate reactivities below the cut-off level (OD=0.050))"},
      {"measurement": "IgE (OD)", "setting": "[1]; serum of patient 38", "value": "— (Dashes indicate reactivities below the cut-off level (OD=0.050))"},
      {"measurement": "IgE (OD)", "setting": "[1]; serum of patient 39", "value": "— (Dashes indicate reactivities below the cut-off level (OD=0.050))"},
      {"measurement": "IgE (OD)", "setting": "[1]; serum of patient 40", "value": "— (Dashes indicate reactivities below the cut-off level (OD=0.050))"},
      {"measurement": "IgE (OD)", "setting": "[1]; serum of patient 41", "value": "— (Dashes indicate reactivities below the cut-off level (OD=0.050))"},
      {"measurement": "IgE (OD)", "setting": "[1]; serum of patient 42", "value": "— (Dashes indicate reactivities below the cut-off level (OD=0.050))"},
      {"measurement": "IgE (OD)", "setting": "[1]; serum of patient 43", "value": "— (Dashes indicate reactivities below the cut-off level (OD=0.050))"},
      {"measurement": "IgE (OD)", "setting": "[1]; serum of patient 44", "value": "— (Dashes indicate reactivities below the cut-off level (OD=0.050))"},
      {"measurement": "IgE (OD)", "setting": "[1]; serum of patient 45", "value": "— (Dashes indicate reactivities below the cut-off level (OD=0.050))"},
      {"measurement": "IgE (OD)", "setting": "[1]; serum of patient 46", "value": "— (Dashes indicate reactivities below the cut-off level (OD=0.050))"},
      {"measurement": "IgE (OD)", "setting": "[1]; serum of patient 47", "value": "— (Dashes indicate reactivities below the cut-off level (OD=0.050))"},
      {"measurement": "IgE (OD)", "setting": "[1]; serum of patient 48", "value": "— (Dashes indicate reactivities below the cut-off level (OD=0.050))"},
      {"measurement": "IgE (OD)", "setting": "[1]; serum of patient 49", "value": "— (Dashes indicate reactivities below the cut-off level (OD=0.050))"},
      {"measurement": "IgE (OD)", "setting": "[1]; serum of patient 50", "value": "— (Dashes indicate reactivities below the cut-off level (OD=0.050))"},
      {"measurement": "IgE (OD)", "setting": "[1]; serum of patient 51", "value": "— (Dashes indicate reactivities below the cut-off level (OD=0.050))"},
      {"measurement": "IgE (OD)", "setting": "[1]; serum of patient 52", "value": "— (Dashes indicate reactivities below the cut-off level (OD=0.050))"},
      {"measurement": "IgE (OD)", "setting": "[1]; serum of patient 53", "value": "— (Dashes indicate reactivities below the cut-off level (OD=0.050))"},
      {"measurement": "IgE (OD)", "setting": "[1]; serum of patient 54", "value": "— (Dashes indicate reactivities below the cut-off level (OD=0.050))"},
      {"measurement": "IgE (OD)", "setting": "[1]; serum of patient 55", "value": "— (Dashes indicate reactivities below the cut-off level (OD=0.050))"},
      {"measurement": "IgE (OD)", "setting": "[1]; serum of patient 56", "value": "— (Dashes indicate reactivities below the cut-off level (OD=0.050))"},
      {"measurement": "IgE (OD)", "setting": "[1]; serum of patient 57", "value": "— (Dashes indicate reactivities below the cut-off level (OD=0.050))"},
      {"measurement": "IgE (OD)", "setting": "[1]; serum of patient 58", "value": "— (Dashes indicate reactivities below the cut-off level (OD=0.050))"},
      {"measurement": "IgE (OD)", "setting": "[1]; serum of patient 59", "value": "— (Dashes indicate reactivities below the cut-off level (OD=0.050))"},
      {"measurement": "IgE (OD)", "setting": "[1]; serum of patient 60", "value": "— (Dashes indicate reactivities below the cut-off level (OD=0.050))"},
      {"measurement": "mean wheal diameter", "setting": "[2]; individual 1", "value": 0, "unit": "mm"},
      {"measurement": "mean wheal diameter", "setting": "[2]; individual 2", "value": 0, "unit": "mm"},
      {"measurement": "mean wheal diameter", "setting": "[2]; individual 3", "value": 0, "unit": "mm"},
      {"measurement": "mean wheal diameter", "setting": "[2]; individual 4", "value": 0, "unit": "mm"},
      {"measurement": "mean wheal diameter", "setting": "[2]; individual 5", "value": 0, "unit": "mm"},
      {"measurement": "mean wheal diameter", "setting": "[2]; individual 6 (allergic, without birch pollen allergy)", "value": 0, "unit": "mm"}
    ]}
  ]
}
